{"source": "paper PMC12596731", "about": "“Cys–Lys stapling for unprotected peptides via tunable linkers” (National Science Review, 2025)", "key": {"[1]": {"system": "human bladder cancer cells", "assay_type": "cell-based", "conditions": "48 h", "experimental": "XI. Biological Experiments\nCell Counting Kit (CCK-8) was used to evaluate the proliferation inhibition activity of the compounds, and the half inhibitory concentration IC50 value was determined by single-concentration primary screening and multi-concentration.\nFetal Bovine Serum (FBS) 04-001-1acs, Biological industries; PBS phosphate buffer (PB180327), penicillin-streptomycin sulfate double resistant mixture (100× ) […]\nLeibovitz's L-15 medium (PM151010), Wuhan Punosai Life Technology Co., LTD.\nCCK-8 Kit, Biosharp life sciences; Trypsin-edta Digestive Solution (05200-056), GIBCO; Cellular DMSO (D2650 -100ML), SIGMA; 96-well cell culture plate, Corning Life Sciences (Wujiang) Co., LTD. 25, 75cm2 cell culture bottle, Corning Life Sciences (Wujiang) Co., LTD. Blood cell counting plate, Shanghai Qiujing Biochemical Reagent Instrument Co., LTD. Cisplatin (D8810), Solarbio life sciences;\nInstruments and equipment\nSuper clean workbench (sw-cj-2fd), Sujing Aetna; Microscope (nib -100), Ningbo Yongxin Optical Co., Ltd; Carbon dioxide cell incubator (MCO -18AC), Phcbi; Electric constant temperature water bath pot (HWS -24), Shanghai Yiheng Technology Co., Ltd; Multifunctional microplate reader (Multiskan MK3), Thermo; One ten-thousandth balance (MS105DU), METTLER; Centrifuge (TD4N), ChangshaYingtai Instrument Co., Ltd; Mixer (SCI-VS), Selo Czech Republic, USA.\nThe samples were dissolved in the cell -grade DMSO after accurately weighing to generate the 10 mM drug solution. The drug solution was further diluted to tenfold detection concentration by cell culture medium.\nStandard Operation Procedure\nDetection principle of cytotoxicity (CCK -8 method):\nThe detection principle is that the CCK-8 reagent contains WST-8, which is reduced S52 to a highly water-soluble yellow methyl product (formazan) by dehydrogenase in the cell mitochondria under the action of electron carrier 1-methoxy-5-methylphenazine dimethyl sulfate (1-methoxy PMS). The number of the nail products produced is directly proportional to the number of living cells.\n(1) Inoculate cells: The cells were prepared into single cell suspension with the culture medium containing 10% fetal bovine serum, and the 96 well plates were inoculated with 90 uL cell culture medium (Adherent cell viewed 5×10^4/mL and Suspension cell viewed 9×10^4/mL) per well, then cultured at 5% CO2 and 37 ℃ for 24 hours.\n(2) Add the sample solution to be tested: Add 10 µL sample solution to each well. One concentration was set for each sample during preliminary screening and three multiple holes were set for each concentration. Eight concentration gradients were set for each sample for IC50 determination and three multiple holes were set for each concentration.\nThe 96 well plates were cultured at 5% CO2 and 37 ℃ for 48 hours. The experiment was divided into a blank group, control group and drug group.\n(3) Color development: The old culture medium and drug solution of adherent cells were sucked out, then 100 µL of CCK-8 solution (diluted ten times with the basic medium) was added and the suspension cells were directly added 10 µL of CCK-8 stock solution. Culture at 37 ℃ with 5% CO2 for 1-4 h (dark operation, real-time observation).\n(4) Result detection: The absorbance was measured at 450 nm with an enzyme labeling instrument and the original data and results were recorded.\n(5) The toxicity is expressed by cell inhibition, and the calculation formula is as follows:\nCell inhibition (%) = (ODControl-ODDrug) / (ODControl-ODBlank)×100%. The IC50 was calculated by the software graphpad prism 8 (version 8.0.2, from GraphPad SoftwareInc)，and the experimental results are expressed in ± SD.\n6) Positive control: Cisplatin."}, "[2]": {"assay": "Circular dichroism measurement of α-helicity", "assay_type": "physicochemical", "conditions": "40% TFE/H2O, 0.05 mM peptide, room temperature, path length 1 mm, 180-260 nm, average of at least 3 values", "experimental": "VIII. Circular Dichroism Measurements.[22]\nGeneral Procedure for the measurement of CD spectra were mensurated at a wavelength ranging from 180 to 260 nm, with a path length of 1mm and a scanning speed of 200 nm/min at room temperature on the J-1500 (Jasco, Japan) spectropolarimeter. The lyophilized solid linear and staple peptides were dissolved in deionized water (bubbled with nitrogen for 30 minutes) to afford a 1 mM solution. The 1 mM stock solution was diluted with six different solvent systems (H2O, 5%, 10%, 20%, 30%, 40% TFE/H2O) to afford 0.05 mM solutions. The data described is the average of at least 3 values. The mean peptide ellipticity [θ] was calculated using equation (1) and plotted against […]\nθ: ellipticity [mdeg], C: peptide molar concentration [M], Np: number of peptide units, l: cell path length [cm].[6]\nFigure S20: The CD spectroscopy of 5y was measured in six different solvent systems Through the above data, we obviously saw that the stapled peptide 5y had the best helicity (34.7%) in 40% solution of TFE/H2O, and then we conducted CD test on the active peptide QN-16 before and after stapling."}, "chymotrypsin": {"system": "chymotrypsin", "assay": "Proteolysis assay with chymotrypsin", "assay_type": "in vitro ADME", "conditions": "chymotrypsin solution, 500 µL of 500 µM peptide in phosphate buffer pH 7.4 + 10 µL chymotrypsin 100 µg/mL, 37 °C, HPLC integration relative to starting peptide, read-out: peptide degraded under chymotrypsin for 1.5 h", "experimental": "IX. Proteolysis assays.\n500 µL of peptide TR-12 (500 µM, 2 µL DMSO was added to help solubilization) in phosphate buffer (pH 7.4) was mixed and incubated with 10 µL of the protease solution (Chymotrypsin – 100 µg/mL) at 37 ℃. At 0, 10, 20 , 40, 60, 90 minutes, aliquots of 50 µL were quenched with 50 µL of 1% TFA solution in MeCN respectively and subjected to HPLC analysis. Peptide concentrations at different time points were quantified by integration of the HPLC trace relative to the starting […]\n500 µL of peptide 5o (500 µM, 2 µL DMSO was added to help solubilization) in phosphate buffer (pH 7.4) was mixed and incubated with\nTable S2. Proteolytic assays of peptide TR-12 and 5o with chymotrypsin.\nTime/Peak area 0 min 10 min 20 min 40 min 60 min 90 min"}, "[3]": {"assay": "Serum stability study in Foetal Bovine Serum", "conditions": "300 µL of 1 mg/mL peptide in deionized water + 300 µL Foetal Bovine Serum, 37 °C, CH3CN precipitation, RP-HPLC peak area of intact peptide", "description": "The peptide of interest (300 µ L of 1 mg/mL stock solution in deionized water) was added to 300 µ L of\nFoetal Bovine Serum and incubated at 37° C in an incubator. At each time point, an aliquot of 50 µ L was\ndrawn and an equal volume of ice-chilled CH3CN was added to the aliquot to precipitate serum proteins.\nThe cloudy mixture was centrifuged at 12,000 rpm for 10 min and then supernatant was removed. The\nlevel of degradation was determined by the integration of the area under the RP-HPLC peak\ncorresponding to the intact peptide.\nBefore testing the serum stability, the standard curve (the relationship between concentration and peak\narea) was established by RP-HPLC for CP-9 and TR-12 and QN-16 and 5h and 5o and 5w.\nshift their retention times later."}}, "data": [{"molecule": "CC(=O)N[C@H](C(=O)N[C@@H](CO)C(=O)N[C@@H](Cc1ccccc1)C(=O)N[C@H]1CCCCNC(=O)CCC/C(=C\\Cl)SSC[C@@H](C(=O)N[C@@H](CC(C)C)C(=O)N[C@@H](CC(C)C)C(=O)N[C@@H](CO)C(=O)N[C@@H](CCCNC(=N)N)C(N)=O)NC(=O)[C@H](Cc2c[nH]c3ccccc23)NC(=O)[C@H](Cc2ccc(O)cc2)NC(=O)[C@H](CCC(N)=O)NC1=O)[C@@H](C)O", "note": "[Peptide 5l]", "values": [{"measurement": "IC50", "setting": "[1]", "value": 14.7, "unit": "µM"}, {"measurement": "Helicity (α-helicity by CD)", "setting": "[2]", "value": 81.4, "unit": "%"}]}, {"molecule": "CC(=O)N[C@H](C(=O)N[C@@H](CO)C(=O)N[C@@H](Cc1ccccc1)C(=O)N[C@H]1CCCCNC(=O)COC/C(Cl)=C\\SSC[C@@H](C(=O)N[C@@H](CC(C)C)C(=O)N[C@@H](CC(C)C)C(=O)N[C@@H](CO)C(=O)N[C@@H](CCCNC(=N)N)C(N)=O)NC(=O)[C@H](Cc2c[nH]c3ccccc23)NC(=O)[C@H](Cc2ccc(O)cc2)NC(=O)[C@H](CCC(N)=O)NC1=O)[C@@H](C)O", "note": "[Peptide 5m]", "values": [{"measurement": "IC50", "setting": "[1]", "value": 21.7, "unit": "µM"}]}, {"molecule": "CC(=O)N[C@H](C(=O)N[C@@H](CO)C(=O)N[C@@H](Cc1ccccc1)C(=O)N[C@H]1CCCCNC(=O)CCCC/C(=C\\Cl)SSC[C@@H](C(=O)N[C@@H](CC(C)C)C(=O)N[C@@H](CC(C)C)C(=O)N[C@@H](CO)C(=O)N[C@@H](CCCNC(=N)N)C(N)=O)NC(=O)[C@H](Cc2c[nH]c3ccccc23)NC(=O)[C@H](Cc2ccc(O)cc2)NC(=O)[C@H](CCC(N)=O)NC1=O)[C@@H](C)O", "note": "[Peptide 5o]", "values": [{"measurement": "IC50", "setting": "[1]", "value": 8.55, "unit": "µM"}, {"measurement": "metabolised at 1.5 h, 490 µM", "setting": "chymotrypsin", "value": 43, "unit": "%"}]}, {"molecule": "CC(=O)N[C@H](C(=O)N[C@@H](CO)C(=O)N[C@@H](Cc1ccccc1)C(=O)N[C@H]1CCCCNC(=O)c2ccccc2OCC/C(Cl)=C\\SSC[C@@H](C(=O)N[C@@H](CC(C)C)C(=O)N[C@@H](CC(C)C)C(=O)N[C@@H](CO)C(=O)N[C@@H](CCCNC(=N)N)C(N)=O)NC(=O)[C@H](Cc2c[nH]c3ccccc23)NC(=O)[C@H](Cc2ccc(O)cc2)NC(=O)[C@H](CCC(N)=O)NC1=O)[C@@H](C)O", "note": "[Peptide 5p]", "values": [{"measurement": "IC50", "setting": "[1]", "value": 14.9, "unit": "µM"}]}, {"molecule": "CC(=O)N[C@H](C(=O)N[C@@H](CO)C(=O)N[C@@H](Cc1ccccc1)C(=O)N[C@H]1CCCCNC(=O)c2cccc(c2)OCC/C(Cl)=C\\SSC[C@@H](C(=O)N[C@@H](CC(C)C)C(=O)N[C@@H](CC(C)C)C(=O)N[C@@H](CO)C(=O)N[C@@H](CCCNC(=N)N)C(N)=O)NC(=O)[C@H](Cc2c[nH]c3ccccc23)NC(=O)[C@H](Cc2ccc(O)cc2)NC(=O)[C@H](CCC(N)=O)NC1=O)[C@@H](C)O", "note": "[Peptide 5q]", "values": [{"measurement": "IC50", "setting": "[1]", "value": 22.4, "unit": "µM"}]}, {"molecule": "CC(=O)N[C@H](C(=O)N[C@@H](CO)C(=O)N[C@@H](Cc1ccccc1)C(=O)N[C@@H](CCCCN)C(=O)N[C@@H](CCC(N)=O)C(=O)N[C@@H](Cc1ccc(O)cc1)C(=O)N[C@@H](Cc1c[nH]c2ccccc12)C(=O)N[C@@H](CS)C(=O)N[C@@H](CC(C)C)C(=O)N[C@@H](CC(C)C)C(=O)N[C@@H](CO)C(=O)N[C@@H](CCCNC(=N)N)C(N)=O)[C@@H](C)O", "note": "[TR-12]", "values": [{"measurement": "IC50", "setting": "[1]", "value": 16.2, "unit": "µM"}, {"measurement": "Helicity (α-helicity by CD)", "setting": "[2]", "value": 44.7, "unit": "%"}, {"measurement": "time for complete degradation in bovine serum", "setting": "[3]", "value": "≤ 2", "unit": "h"}, {"measurement": "metabolised at 1.5 h, 490 µM", "setting": "chymotrypsin", "value": 90, "unit": "%"}]}, {"molecule": "Ac-CPIMEDRKP-NH2 [CP-9]", "values": [{"measurement": "time for complete degradation in bovine serum", "setting": "[3]", "value": "≤ 5", "unit": "h"}]}, {"molecule": "Ac-QSQQTFCNLWRLLKQN-NH2 (also: sidechain bridge or staple (positions not given here)) [Peptide 5v, QN-16 stapled with reagent 3d]", "values": [{"measurement": "Helicity (α-helicity by CD)", "setting": "[2]", "value": 60.8, "unit": "%"}]}, {"molecule": "Ac-QSQQTFCNLWRLLKQN-NH2 (also: sidechain bridge or staple (positions not given here)) [Peptide 5y, QN-16 stapled with reagent 3m]", "values": [{"measurement": "Helicity (α-helicity by CD)", "setting": "[2]", "value": 34.7, "unit": "%"}]}, {"molecule": "Ac-QSQQTFCNLWRLLKQN-NH2 [QN-16]", "values": [{"measurement": "Helicity (α-helicity by CD)", "setting": "[2]", "value": 30.3, "unit": "%"}]}]}
